Reference: patent publication US8410138B2, “Compounds for activating TGF-beta signaling” (The Board of Trustees of the Leland Stanford Junior …, priority 2007, dated 2013)
pIC50: −log10 of the molar value. Where two headings read alike, the source gives them in different places. Values belong to the compound of their own block, whether it stands above or below them.

Legend:
[1] = system: TGF-β signaling (SBE-SEAP reporter) in MFB-F11 cells; assay type: cell-based, mouse; details: for Relative TGF-β activity, fold change compared with vehicle: cell reporter assay
Protocol: All compounds were tested twice, in duplicate, using the MFB-F11 cell line. 80 compounds were selected for further study based on induction of the reporter gene in any of the replicates. These compounds were tested again in MFB-F11 or C6-H4 cells, either alone or in the presence of 100 pg/ml of TGF-β1, to test for synergistic activities.

[2] = system: fibroblasts lacking Smad2, Smad3 or Smad4; experiment: SBE reporter signaling in fibroblasts lacking elements of the TGF-β signaling pathway; assay type: cell-based; details: Smad2 (FIG. 2B) or Smad3 knock-out fibroblasts
Description: To understand how the TGF-β signaling agonists function and identify molecular genetic targets in cells, fibroblasts lacking different elements of the TGF-β3 signaling pathway, including Smad2, Smad3, and Smad4, were used in combination with plasmids encoding different inhibitors of the TGF-β signaling pathway to study TGF-β agonists in different backgrounds. For reference, the canonical TGF-β signaling pathway is illustrated in FIG. 2A. The biological actions of TGF-β1 are mediated through interactions with the type 2 TGF beta receptor (TBR2) 2 and the type I TGF beta receptor (TBRI) 3. Betaglycan 4 may participate in the binding of TGF-β1. Receptor activation leads to the phosphorylation of Smad proteins, such as Smad 2/3 5 and Smad 4 6, which translocate to the nucleus 7 to bind to the Smad DNA-binding element (SBE) 8, present in numerous genes, in combination with transcription factors (TF) 9. Smad 7 10 is inhibitory with respect to Smad 2/3 5 phosphorylation. Alternative signaling involves p38 11 and the MAP kinase pathway. TAB1 12 activates TAK1 13, which activates p38 11.
Because Smad2 and Smad3 can substitute for each other, results with Smad2 or Smad3 knock-out fibroblasts were more difficult to interpret. Nonetheless, the synergistic effect of TGF-β1 and 11H was blocked in the absence of Smad2 (FIG. 2B) or Smad3 (not shown). In these assays, signaling is reported via SBE elements, which are specific elements that bind Smad proteins. Thus, the 11H compound must signal through this element. Without being limited to theory, it is believed that the 3A compound functions as a competitive agonist of Smad binding to the SBE, representing a novel target and mode of action.

[3] = system: TGF-β reporter gene in hippocampus; experiment: Luciferase activity in SBE-luc mouse hippocampus; assay type: in vivo; details: 30 mg/kg i.p.; five hours after injection; SBE-luc mice
Protocol: In another experiment performed to asses the ability of the present compounds to activate TGF-β signaling in animals, SBE-luc mice were given either PBS or the 11H compound via i.p. injections as described in Example 10. Following drug or PBS injection, mice were anesthetized with chloral hydrate and perfused with saline. Brains were dissected and snap-frozen. Hippocampal tissues were assayed for luciferase activity.
(§1) SBE-luc mice (T9-7F), 2-4 months of age, 4-5 mice per group, were given either the 11H compound at 30 mg/kg via i.p. injections, or PBS as a control. The 11H compound was completely dissolved in PBS at the concentration of 3 mg/ml. This working solution was given to mice at 10 μl/g body weight to achieve the desired level of 30 mg/kg. Five hours following drug or PBS injection, mice were anesthetized with chloral hydrate and perfused with saline. Brains were dissected and snap-frozen. Hippocampal tissues were homogenized in 100 μl of 1× luciferase assay buffer and 20 μl of the resulting supernatant was used for luciferase assays.

Dissolution in PBS = assay type: physicochemical
Protocol: as §1

[4] = system: primary hippocampal neurons from E16 mouse embryos; assay type: cell-based; details: Aβ oligomers inducing 50-70% cell death; 13A04 3 μM, TGF-β1 10 ng/ml; 24 hours
Protocol: (§2) FIG. 1H is a graph showing the relative amount of surviving 6-7 DIV hippocampal neurons of E16 mice following exposure to culture medium (CM) alone, 13A04 (3 μM), or CM containing Aβ at 2 or 5 μM with TGF-β1 (10 ng/ml) or 13A04 (3 μM). After 24 hours, cultures were fixed and surviving cells were counted. Data represent mean±SEM, n=3-7 fields counted per plate. All conditions were compared to Aβ using the Mann-Whitney test (* p<0.05, ** p<0.01). FIG. 1I is a graph showing the relative gene expression levels of the indicated TGF-β-responsive genes induced in MFB-F11 fibroblasts stimulated with TGF-β1 (yellow) or 13A04 (blue) for 24 h. mRNA was extracted, labeled and hybridized to gene expression arrays tailored for the TGF-β pathway.
Moreover, the small-molecule TGF-β agonist was not toxic at 3 μM and 10 μM (not shown).
Primary mixed neuronal cultures are exposed to Aβ oligomers and treated with compounds (0 to 10 μM concentration) and cell survival is measured using lactate dehydrogenase (LDH) release or by counting 4,6-diamidino-2-phenylindole (DAPI)-stained cells. […] Neuritic dystrophy in 21 DIV neurons can also be measured by quantifying the tortuosity of neurites as described by Ferreira et al.^70 and modified by others. […] Further incubation of these cells with the present compounds provides a sensitive assay for neuroprotection.

[5] = system: TGF-β-responsive genes in MFB-F11 fibroblasts; experiment: Microarray of TGF-β pathway gene expression in tgfb1−/− fibroblasts; assay type: cell-based, mouse; details: 1, 5, 24 hours
Protocol: as §2
A microarray assay was used to identify changes in gene expression caused by stimulating tgfb1^−/− fibroblasts with TGF-β1 or 13A04. mRNA was harvested 1, 5, and 24 hours following stimulation of tgfb1^−/− fibroblasts with TGF-β1 (or control) and analyzed for differential expression of 128 genes related to TGF-β signaling, using a commercially available filter array (Superarray Bioscience Corp.; FIG. 1I). […]

[6] = system: TGF-β signaling (SBE-luc reporter) in brain; experiment: Bioluminescence and tissue luciferase in SBE-luc reporter mice; assay type: in vivo, mouse; details: i.p. or s.q. injection; FIG. 3D
Description: Transgenic mice harboring the SBE-luc reporter gene were generated and used to test the present compositions in vivo. These “reporter mice” mice express SBE-luc (i.e., “the transgene”) in all cells of the body.^1,54 Intraperitoneal injection of luciferin into SBE-luc mice produces bioluminescence generated by luciferase and photons penetrating the skull can be imaged using sensitive camera systems.^1,54
To determine whether 3A and its analogs are bioactive in vivo and able to penetrate the blood brain barrier (BBB), TGF-β1, 3A, 22B02, or 13A04 were injected into reporter mice i.p. or s.q. The animals were then sacrificed at the indicated times following injection. […] There was no obvious activation of the reporter in other organs.
Bioactivity data were confirmed by biochemical measurements of tissue luciferase in hippocampal homogenates (FIG. 3E).
Two-month old SBE-luciferase transgenic mice receive different concentrations of a test compound either s.q., i.p., or orally by gavage. […] Following administration of the test or control compounds, mice are injected with luciferin i.p. At, e.g., 2, 8, and 16 hours following injection of luciferin, the mice are imaged to detect bioluminescence as described above. Brains may be harvested 16 hours following test compound injection, and may be divided sagittally. […]

[7] = system: TGF-β signaling in hippocampal neurons; experiment: RFP immunohistochemistry in SBE-lucRT reporter mice; assay type: in vivo, mouse
Description: To study TGF-β signaling at the cellular level, additional reporter mice were generated, which express a fusion protein consisting of luciferase, red fluorescent protein […], and thymidine kinase (TK) under control of the SBE promoter (i.e., SBE-lucRT mice).

Aβ deposition = experiment: APP-T41 mice treated for 10 days, Aβ immunostaining; assay type: in vivo; details: 5-month-old APP-T41 mice, i.p. for 10 days
Protocol: In a further experiment, a group of 5-month-old APP-T41 mice were treated with vehicle or 13A04 (i.p.) for 10 days. At this age, the mice are starting to deposit Aβ which can be quantified in brain sections using Aβ immunostaining.
Transgenic mice that overproduce FAD-mutant human APP reproduce important aspects of AD, including amyloid plaques, neurodegeneration, and cognitive deficits. APP-T41 mice which overexpress APP751^V717I, K670M/N671L in neurons develop amyloid pathology, neurodegeneration, and cognitive deficits.^43,44 Mice overexpressing human tau protein associated with familial forms of fronto-temporal dementia (a dementia characterized by extensive tangle formation) develop neurofibrillary tangles similar to the ones observed in AD and suffer from locomotor deficits around 10 months of age.^45 APP-T41 and Prp-tau^P301L mice^45 can be used to determine the in vivo efficacy of test compounds in treating AD-like diseases.
Compounds can also be tested for their ability to reverse cognitive deficits.

HDAC 1 and 2 = details: read-out: 1050 (HDAC 1 and 2 inhibition); cited from earlier work
[8] = system: HDAC activity in HeLa nuclear extracts (HDAC 1, HDAC 2, SIRT 1); details: FIG. 8B
Description: A commercially available assay was used to measure HDAC inhibitory activity of the present small-molecule compounds.

Concentration completely dissolved in PBS (Dissolution in PBS): ≥ 3 mg/mL
Compound: C/C(=C\c1ccccc1)CN(CC1CCNCC1)C(=O)NC1CCCCC1 [Compound 11H, (E)-3-cyclohexyl-1-(2-methyl-3-phenylallyl)-1-(piperidin-4-ylmethyl)urea]
TGF-β agonist activity ([1]; data of FIGS. 1A-1J): TGF-β-agonists
Synergistic effect with TGF-β1 in the absence of Smad2 or Smad3 [2]: blocked
Activation of the TGF-β reporter gene in hippocampi compared to PBS [3]: twice the levels

Compound: CC(C)CN(CC(=O)N(CCc1c[nH]c2ccccc12)Cc1ccccc1)C(=O)c1ccco1 [Compound 13A04]
Relative TGF-β activity, fold change compared with vehicle ([1]; 3 μM): 2.5 fold
Relative TGF-β activity, fold change compared with vehicle ([1]; 10 μM): 6.3 fold
Relative TGF-β activity, fold change compared with vehicle ([1]; 30 μM): 17.6 fold
Relative TGF-β activity, fold change compared with vehicle ([1]; 100 μM): 20.9 fold
Protection of neurons against Aβ toxicity (survival) [4]: consistently protected neurons and increased survival
Expression of TGF-β signaling genes (Fos, Jun, Myc, Smad1, Smad2, Smad3, Interleukin-6) [5]: induced
Reporter activation (bioluminescence) in living mice [6]: dose-dependent manner
TGF-β signaling in the vasculature [7]: No activation
Reporter gene and TGF-β signaling in hippocampal neurons ([7]; RFP immunohistochemistry): activates the reporter gene and TGF-β signaling in hippocampal neurons
Tolerability / side effects (Aβ deposition): well tolerated and no side effects were observed
Aβ deposition versus controls (Aβ deposition; not statistically significant): trend towards reduced Aβ deposition

Compound: N#Cc1ccc(-c2ccc(OCCCCCCC(=O)NO)cc2)cc1 [Compound A-161906]
pIC50 (HDAC 1 and 2): 8.05

Compound: trichostatin A
Reduction of HDAC activity [8]: > 90%
